Values quoted from earlier work in patent US12280031B2, “Teriflunomide topical pharmaceutical compositions” (APRAMITHA INNOVATIONS PRIVATE LIMITED, priority 2018, dated 2025).

Experiments:
patients = details: oral teriflunomide, dose-dependent

pKa: 5.2
solubility in water (water): very slightly soluble
SMILES: C/C(O)=C(\C#N)C(=O)Nc1ccc(C(F)(F)F)cc1 [Teriflunomide, (Z)-2-cyano-3-hydroxy-but-2-enoic acid-(4′-trifluoromethylphenyl)-amide]
adverse effects (patients): nausea, diarrhoea, hair thinning/decreased hair density, and elevated alanine aminotransferase (ALT) levels
